Measured values reported in ChEMBL document CHEMBL1130117, “Structure-activity relationships for the antileishmanial and antitrypanosomal activities of 1'-substituted 9-anilinoacridines” (J Med Chem, 1997).

What was measured:
Leishmania major = test: Concentration required to reduce incorporation of [3H]TdR in drug-treated cultures of intracellular Leishmania major to 50% of controls; assay type: functional, organism-based
[1] = Lipophilicity index (substitution method); assay type: physicochemical; conditions: octanol/water
Jurkat = test: Concentration required to reduce the growth of human Jurkat cells to 50% of control cultures; assay type: functional, cell-based
Leishmania donovani = test: Concentration required to reduce the number of macrophages infected with Leishmania donovani amastigotes to 50% of untreated controls.; assay type: functional; conditions: read-out: ED50 (the source's name)
Trypanosoma brucei = test: Concentration required to inhibit the growth of extracellular Trypanosoma brucei trypomastigotes to 50% of untreated controls.; assay type: functional; conditions: read-out: ED50 (the source's name)
Trypanosoma cruzi = test: Concentration required to reduce the number of macrophages infected with Trypanosoma cruzi amastigotes to 50% of untreated controls.; assay type: functional; conditions: read-out: ED50 (the source's name)
[2] = relative lipophilicity determined where possible by computation by the fragment constant method; assay type: physicochemical; conditions: octanol/water

Structure (SMILES) | IC50 (Leishmania major) [µM] | Index [1] | IC50 (Jurkat) [µM] | EC50 (Leishmania donovani) [µM] | EC50 (Trypanosoma brucei) [µM] | EC50 (Trypanosoma cruzi) [µM] | Liphophilicity [2] [sigma pi]
CCN(CC)CCNc1ccc(Nc2c3ccccc3nc3ccccc23)cc1OC | 1.6 | 3.27 | 1.5 |  |  |  | 
CCCCCNCc1ccc(Nc2c3ccccc3nc3ccccc23)cc1 | 2 |  | 1.53 |  |  |  | 
CCN(C)c1ccc(Nc2c3ccccc3nc3ccccc23)cc1OC | > 3 | 0.66 | 16.5 |  |  |  | 
CN(C)Cc1ccc(Nc2c3ccc(Cl)cc3nc3cc(Cl)ccc23)cc1 | 2 | 1.27 |  |  |  |  | 
c1ccc(Nc2c3ccccc3nc3ccccc23)cc1 | 2.7 | 0 | 2.7 |  |  |  | 
CCCCCCN(C)c1ccc(Nc2c3ccc(Cl)cc3nc3ccc(OC)cc23)cc1 | 1.8 | 3.73 | > 20 | > 3 | 4.3 | > 3 | 
COc1cc(NS(C)(=O)=O)ccc1Nc1c2ccc(N(C)C)cc2nc2cc(N(C)C)ccc12 | > 3 | -0.84 | 3 |  |  |  | 
Nc1ccc(Nc2c3ccccc3nc3ccccc23)cc1 | 2.1 | -1.23 |  |  |  |  | 
COc1cc(NS(C)(=O)=O)ccc1Nc1c2ccccc2nc2ccccc12 [AMSACRINE] | 1.5 | -1.2 | 0.2 |  |  |  | 
NCCCCCCNS(=O)(=O)c1ccc(N=c2c3ccccc3[nH]c3ccccc23)cc1 | > 3 |  | > 20 |  |  |  | 
NS(=O)(=O)c1ccc(Nc2c3ccccc3nc3ccccc23)cc1 | > 3 | -1.82 | 5 |  |  |  | 
CNc1ccc(Nc2c3ccccc3nc3ccccc23)cc1OC | 3.6 | -0.49 | 11 |  |  |  | 
Nc1ccc2c(=Nc3ccc(S(N)(=O)=O)cc3)c3ccc(N)cc3[nH]c2c1 | > 3 | -4.28 |  |  |  |  | 
Nc1ccc(Nc2c3ccccc3nc3ccccc23)cn1 | 3.9 | -2.74 | 3.6 |  |  |  | 
CNc1ccc(Nc2c3ccccc3nc3ccccc23)cc1OC(C)C | 1.3 |  | 8 |  |  |  | 0.38
CNc1ccc(Nc2c3ccccc3nc3ccccc23)cc1 | 1.5 | -0.47 |  |  |  |  | 
Nc1ccc2c(Nc3ccc(CN4CCCC4)cc3)c3ccc(N)cc3nc2c1 | > 3 |  | > 20 |  |  |  | 
COc1cc(NS(C)(=O)=O)ccc1Nc1c2ccc(N)cc2nc2cc(N)ccc12 | > 3 | -3.66 |  |  |  |  | 
CN(C)Cc1ccc(Nc2c3ccc(N)cc3nc3cc(N)ccc23)cc1 | 5 | -2.61 | 12 |  |  |  | 

These reach a lower IC50 (Leishmania major). Values come first.

IC50 (Leishmania major) [µM] | Index [1] | IC50 (Jurkat) [µM] | EC50 (Leishmania donovani) [µM] | EC50 (Trypanosoma brucei) [µM] | EC50 (Trypanosoma cruzi) [µM] | Liphophilicity [2] [sigma pi] | Structure (SMILES)
1 | 0.68 | 4 | 4.4 | 0.88 | 3.3 |  | CCN(C)c1ccc(Nc2c3ccccc3nc3ccccc23)cc1
0.9 | 0.18 | 1 | 3.6 | 1.3 | > 3 |  | CN(C)c1ccc(Nc2c3ccccc3nc3ccccc23)cc1
0.7 |  | 4 |  |  |  |  | NCCNCCc1ccc(Nc2c3ccccc3nc3ccccc23)cc1
0.16 | 2.74 | 1.75 | 0.25 | 0.2 | > 3 |  | CCCCCCNc1ccc(Nc2c3ccc(N(C)C)cc3nc3cc(N(C)C)ccc23)cc1
0.3 | 4.22 | < 1 |  |  |  |  | CCN(CC)CCCc1ccc(Nc2c3ccccc3nc3ccccc23)cc1
0.5 | 3.71 | > 20 | 3.2 | 0.6 | 9.3 |  | CCCCCCNc1ccc(Nc2c3ccc(Cl)cc3nc3ccc(OC)cc23)cc1OC
0.3 | 3.04 | 3 | 1.2 | 0.33 | > 1 |  | CCCCCCN(C)c1ccc(Nc2c3ccccc3nc3ccccc23)cc1
0.45 | 1.8 | 5 |  |  |  |  | c1ccc2c(Nc3ccc(NC4CCCC4)cc3)c3ccccc3nc2c1
1 | 2.87 | 5 |  |  |  |  | CCCCCCOc1ccc(Nc2c3ccccc3nc3ccccc23)cc1
0.8 | 3.99 | 13 |  |  |  |  | CCCCCCCc1ccc(Nc2c3ccccc3nc3ccccc23)cc1
1 | -0.15 |  |  |  |  |  | CN(C)Cc1ccc(Nc2c3ccccc3nc3ccccc23)cc1
0.2 | 3.29 | 1.3 |  |  |  |  | CCN(CC)CCCNc1ccc(Nc2c3ccccc3nc3ccccc23)cc1
0.07 | 3.4 | 1.75 | 0.03 | > 0.3 | 0.12 |  | CCCCCCN(C)c1ccc(Nc2c3ccc(N(C)C)cc3nc3cc(N(C)C)ccc23)cc1
0.03 | 0.36 |  |  |  |  |  | CN(C)c1ccc2c(Nc3ccccc3)c3ccc(N(C)C)cc3nc2c1
0.55 | 2.38 | 17 | 12.3 | 3.9 | 2.2 |  | CCCCCCNc1ccc(Nc2c3ccccc3nc3ccccc23)cc1
0.4 | 1.18 | 1 | 0.76 | > 0.3 | > 3 |  | CCN(CC)c1ccc(Nc2c3ccccc3nc3ccccc23)cc1
0.2 | 2.24 | 1.5 | > 10 | 0.37 | 2.5 |  | CCCN(CCC)c1ccc(Nc2c3ccccc3nc3ccccc23)cc1
0.2 | 3.07 | 4 | 4 | > 0.3 | > 10 |  | CCCCCCNc1ccc(Nc2c3ccc(Cl)cc3nc3ccc(OC)cc23)cc1
0.2 |  | 2 |  |  |  |  | c1ccc2c(Nc3ccc(CN4CCCC4)cc3)c3ccccc3nc2c1
0.35 | 3.56 | 2 | > 10 | 1.46 | > 10 |  | CCCCN(CCCC)c1ccc(Nc2c3ccccc3nc3ccccc23)cc1
0.24 | 6.2 | 6.5 | 1.35 | > 0.3 | > 3 |  | CCCCCCN(CCCCCC)c1ccc(Nc2c3ccccc3nc3ccccc23)cc1
0.55 | 2 | > 15 |  |  |  |  | c1ccc2c(Nc3ccc(NC4CCCCC4)cc3)c3ccccc3nc2c1
0.6 | 3.02 | 6.5 | 1.9 | 1.8 | > 0.3 |  | CCCCCCN(C)c1ccc(Nc2c3ccccc3nc3ccccc23)cc1OC
0.4 | 2.36 | 3.5 | 1.2 | 0.65 | 1.8 |  | CCCCCCNc1ccc(Nc2c3ccccc3nc3ccccc23)cc1OC
0.16 | 4.88 | 2.3 | > 90 | 0.2 | > 0.3 |  | CCCCCN(CCCCC)c1ccc(Nc2c3ccccc3nc3ccccc23)cc1
